Measured values published in patent publication US20240277698A1, “METHODS OF USING ALDOSTERONE SYNTHASE INHIBITORS” (CINCOR PHARMA, INC., priority 2021, published 2024).

Columns and labels:
Format in all cases: in vivo
[1] = SAD study Part 1: safety and tolerability (adverse events, laboratory values); details: single oral dose, highest dose tested
Method: There were no deaths, serious adverse events (SAEs), or dose-limiting events and the maximum tolerated dose observed was at the highest dose tested (360 mg). Overall, the most frequently reported AEs following administration of a single dose of (R)-compound 1 were headache, nasopharyngitis, diarrhea, asthenia, dizziness, and nausea.
Urine sodium and the sodium to potassium ratio both increased, with the sodium loss in urine greater than the potassium retention. No change in urine creatinine was apparent.
AEs were reported for few subjects and the incidence was not dose dependent (Table 14). No severe AEs, SAEs, withdrawals due to AEs, or deaths were noted. Overall, the most frequently reported AEs across dose levels were headache, nasopharyngitis, diarrhea, and nausea; however, the only events reported by >1 subject at any dose level were toothache (2 subjects [12.5%] with placebo), nasopharyngitis (2 subjects [12.5%] with placebo), and headache (2 subjects [33.3%] with 180 mg). The majority of AEs were considered not related to study drug. Two events of moderate gastroenteritis were reported (with 180 mg and placebo) and all other AEs were mild in intensity.
Isolated markedly abnormal safety laboratory values were reported but no dose-dependent pattern was apparent. No AEs related to markedly abnormal safety laboratory values were reported. […]

[2] = molecular target: T1, CYP11B1 (Homo sapiens, UniProt P15538); experiment: SAD study: plasma cortisol, 11-deoxycortisol and 11-DOC after Cortrosyn challenge
T1 construct: endogenous in cells; host or cells: adrenal cortex of healthy human subjects (in vivo, oral dosing)
T1 sequence (P15538 25-503): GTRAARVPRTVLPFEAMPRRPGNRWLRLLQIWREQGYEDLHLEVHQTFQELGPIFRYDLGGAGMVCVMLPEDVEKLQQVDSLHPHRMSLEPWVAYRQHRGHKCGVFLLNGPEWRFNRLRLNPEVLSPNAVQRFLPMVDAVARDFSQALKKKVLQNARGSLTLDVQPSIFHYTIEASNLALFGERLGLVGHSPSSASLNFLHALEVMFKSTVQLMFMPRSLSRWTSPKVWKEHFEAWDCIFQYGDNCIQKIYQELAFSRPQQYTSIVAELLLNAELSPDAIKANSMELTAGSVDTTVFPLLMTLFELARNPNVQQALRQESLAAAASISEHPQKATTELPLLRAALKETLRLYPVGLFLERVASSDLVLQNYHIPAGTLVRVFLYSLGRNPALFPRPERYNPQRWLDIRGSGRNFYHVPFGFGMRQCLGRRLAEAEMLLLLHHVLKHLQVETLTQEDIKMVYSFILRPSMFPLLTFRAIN
Method: Single doses of (R)-compound 1 reduced plasma and urine aldosterone levels by approximately 85% to 90% in a dose-dependent manner, consistently reaching a maximum effect at a dose of 10 mg (R)-compound 1 under the different conditions tested (Cortrosyn® challenge, standing, normal salt diet, and low salt diet conditions). No change in plasma cortisol levels was apparent across the full dose range tested (0 to 360 mg (R)-compound 1).
A maximum effect on aldosterone reduction was consistently achieved at a dose of 10 mg under the different conditions tested in healthy subjects (Cortrosyn® challenge, standing, normal salt diet, and low salt diet conditions). No change in plasma cortisol levels after the Cortrosyn challenge was apparent across the full dose range tested (0 to 360 mg of (R)-compound 1).

[3] = Absolute bioavailability, 3 mg IV versus 3 mg oral; details: human, plasma

CCC(=O)N[C@@H]1CCCc2c(-c3ccc4c(c3)CCC(=O)N4C)cncc21 [(R)-Compound 1, (R)—N-(4-(1-methyl-2-oxo-1,2,3,4-tetrahydroquinolin-6-yl)-5,6,7,8-tetrahydroisoquinolin-8-yl)propionamide]
maximum tolerated dose [1]: 360 mg
plasma cortisol levels ([2]; full dose range tested (0 to 360 mg), Cortrosyn challenge): No change
doses at which 11-DOC increased ([2]; single doses): ≥ 90 mg
11-deoxycortisol ([2]; single doses up to 360 mg): increases in 11-deoxycortisol (at doses of 180 mg and 360 mg)
bioavailability [3]: 97.9%
